Laboratory results as given in US9156796B2, “Benzoimidazole-carboxylic acid amide derivatives as APJ receptor modulators” (SANOFI, priority 2013, dated 2015).

What follows are compounds tested against T1, human apelin receptor (Homo sapiens, UniProt P35414) (assay: Determination of agonism on the human apelin receptor by a calcium fluorescence assay (FLIPR)). Conditions: HEK293 cells stably transfected with human apelin receptor and Giaq protein, Fluo-4 calcium fluorescence, read-out: EC50 (APJ agonism).
T1 construct: expressed in transfected cells
T1 sequence (P35414 1-380): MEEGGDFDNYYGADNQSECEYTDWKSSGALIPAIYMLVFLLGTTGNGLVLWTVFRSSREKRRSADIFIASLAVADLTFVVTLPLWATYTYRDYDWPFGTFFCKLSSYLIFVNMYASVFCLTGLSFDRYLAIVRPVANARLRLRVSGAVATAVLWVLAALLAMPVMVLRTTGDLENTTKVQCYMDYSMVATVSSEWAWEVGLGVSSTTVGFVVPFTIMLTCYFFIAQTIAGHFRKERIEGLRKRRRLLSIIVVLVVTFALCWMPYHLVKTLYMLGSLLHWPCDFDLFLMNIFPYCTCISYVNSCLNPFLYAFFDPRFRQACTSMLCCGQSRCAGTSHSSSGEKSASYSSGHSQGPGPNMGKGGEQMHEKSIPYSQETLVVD
Assay type: cell-based
Outline: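 Agonist EC50s come from peak intracellular calcium transients recorded by FLIPR Tetra, scaled to the 1 μM apelin-13 maximum per plate. Test system: HEK293 stably transfected with human apelin receptor plus Giaq, Fluo-4-loaded (4 μM, 1 h, 37 °C, pH 7.4 buffer with probenecid); ≥7 concentrations, triplicates.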
`CCC(CC)n1c(Cc2cccs2)nc2cc(C(=O)N[C@@H](CC(C)C)C(=O)NCc3cccc(N(C)C)c3)ccc21` [Example 252, 1-(1-Ethyl-propyl)-2-thiophen-2-ylmethyl-1H-benzoimidazole-5-carboxylic acid [(S)-1-(3-dimethylamino-benzylcarbamoyl)-3-methyl-butyl]-amide] showed an EC50 of 6.99 µM.
`CCC(CC)n1c(Cc2cccs2)nc2cc(C(=O)N[C@@H](CC(C)C)C(=O)NCCCCN3CCCC3)ccc21` [Example 253, 1-(1-Ethyl-propyl)-2-thiophen-2-ylmethyl-1H-benzoimidazole-5-carboxylic acid [(S)-3-methyl-1-(4-pyrrolidin-1-yl-butylcarbamoyl)-butyl]-amide] gave an EC50 of 0.242 µM.
With `CCC(CC)n1c(Cc2cccs2)nc2cc(C(=O)N[C@@H](CC(C)C)C(=O)NCc3ncco3)ccc21` [Example 254, 1-(1-Ethyl-propyl)-2-thiophen-2-ylmethyl-1H-benzoimidazole-5-carboxylic acid {(S)-3-methyl-1-[(oxazol-2-ylmethyl)-carbamoyl]-butyl}-amide] the EC50 was 0.233 µM.
In the case of `CCC(CC)n1c(Cc2cccs2)nc2cc(C(=O)N[C@@H](CC(C)C)C(=O)Nc3ccccc3OC)ccc21` [Example 255, 1-(1-Ethyl-propyl)-2-thiophen-2-ylmethyl-1H-benzoimidazole-5-carboxylic acid [(S)-1-(2-methoxy-phenylcarbamoyl)-3-methyl-butyl]-amide], the EC50 is reported as 6.67 µM.
`CCC(CC)n1c(Cc2cccs2)nc2cc(C(=O)N[C@@H](CC(C)C)C(=O)N(C)Cc3ccccc3OC)ccc21` [Example 256, 1-(1-Ethyl-propyl)-2-thiophen-2-ylmethyl-1H-benzoimidazole-5-carboxylic acid {(S)-1-[(2-methoxy-benzyl)-methyl-carbamoyl]-3-methyl-butyl}-amide] gave an EC50 of 5.92 µM.
`CCC(CC)n1c(Cc2cccs2)nc2cc(C(=O)N[C@@H](CC(C)C)C(=O)NCC3CCCCN3C)ccc21` (stereo partly drawn) [Example 257, 1-(1-Ethyl-propyl)-2-thiophen-2-ylmethyl-1H-benzoimidazole-5-carboxylic acid {(S)-3-methyl-1-[(1-methyl-piperidin-2-ylmethyl)-carbamoyl]-butyl}-amide] gave an EC50 of 0.425 µM.
`CCC(CC)n1c(Cc2cccs2)nc2cc(C(=O)N[C@@H](CC(C)C)C(=O)NCCSC)ccc21` [Example 258, 1-(1-Ethyl-propyl)-2-thiophen-2-ylmethyl-1H-benzoimidazole-5-carboxylic acid [(S)-3-methyl-1-(2-methylsulfanyl-ethylcarbamoyl)-butyl]-amide] was tested, and the EC50 was 1.33 µM.
In the case of `CCC(CC)n1c(Cc2cccs2)nc2cc(C(=O)N[C@@H](CC(C)C)C(=O)N[C@H]3C[C@@H]3c3ccccc3)ccc21` [Example 259, 1-(1-Ethyl-propyl)-2-thiophen-2-ylmethyl-1H-benzoimidazole-5-carboxylic acid [(S)-3-methyl-1-((1S,2R)-2-phenyl-cyclopropylcarbamoyl)-butyl]-amide], the EC50 is reported as 6.65 µM.
`CCC(CC)n1c(Cc2cccs2)nc2cc(C(=O)N[C@@H](CC(C)C)C(=O)N3CC[C@@H](N(C)C)C3)ccc21` [Example 260, 1-(1-Ethyl-propyl)-2-thiophen-2-ylmethyl-1H-benzoimidazole-5-carboxylic acid [(S)-1-((R)-3-dimethylamino-pyrrolidine-1-carbonyl)-3-methyl-butyl]-amide] was tested, and the EC50 was 0.17 µM.
For `CCC(CC)n1c(Cc2cccs2)nc2cc(C(=O)N[C@@H](CC(C)C)C(=O)NCCCCN(CC)CC)ccc21` [Example 261, 1-(1-Ethyl-propyl)-2-thiophen-2-ylmethyl-1H-benzoimidazole-5-carboxylic acid [(S)-1-(4-diethylamino-butylcarbamoyl)-3 methyl-butyl]-amide], the EC50 was 0.269 µM.
Work on `CCC(CC)n1c(Cc2cccs2)nc2cc(C(=O)N[C@@H](CC(C)C)C(=O)N[C@@H](C)c3ccccc3F)ccc21` [Example 262, 1-(1-Ethyl-propyl)-2-thiophen-2-ylmethyl-1H-benzoimidazole-5-carboxylic acid {(S)-1-[(S)-1-(2-fluoro-phenyl)-ethylcarbamoyl]-3-methyl-butyl}-amide] yielded an EC50 of 4.55 µM.
Compound `CCC(CC)n1c(Cc2cccs2)nc2cc(C(=O)N[C@@H](CC(C)C)C(=O)N(C)Cc3ccccc3)ccc21` [Example 263, 1-(1-Ethyl-propyl)-2-thiophen-2-ylmethyl-1H-benzoimidazole-5-carboxylic acid [(S)-1-(benzyl-methyl-carbamoyl)-3-methyl-butyl]-amide] has an EC50 of 4.3 µM.
In the case of `CCC(CC)n1c(Cc2cccs2)nc2cc(C(=O)N[C@@H](CC(C)C)C(=O)N(C)CCc3ccccc3)ccc21` [Example 264, 1-(1-Ethyl-propyl)-2-thiophen-2-ylmethyl-1H-benzoimidazole-5-carboxylic acid [(S)-3-methyl-1-(methyl-phenethyl-carbamoyl)-butyl]-amide], the EC50 is reported as 3.34 µM.
`CCC(CC)n1c(Cc2cccs2)nc2cc(C(=O)N[C@@H](CC(C)C)C(=O)Nc3ccc(OC)cc3)ccc21` [Example 265, 1-(1-Ethyl-propyl)-2-thiophen-2-ylmethyl-1H-benzoimidazole-5-carboxylic acid [(S)-1-(4-methoxy-phenylcarbamoyl)-3-methyl-butyl]-amide] was tested, and the EC50 was 8.66 µM.
`CCC(CC)n1c(Cc2cccs2)nc2cc(C(=O)N[C@@H](CC(C)C)C(=O)NCc3ccc(N(C)C)cc3)ccc21` [Example 266, 1-(1-Ethyl-propyl)-2-thiophen-2-ylmethyl-1H-benzoimidazole-5-carboxylic acid [(S)-1-(4-dimethylamino-benzylcarbamoyl)-3-methyl-butyl]-amide] showed an EC50 of 2.72 µM.
`CCC(CC)n1c(Cc2cccs2)nc2cc(C(=O)N[C@@H](CC(C)C)C(=O)NCCN(C)C)ccc21` [Example 267, 1-(1-Ethyl-propyl)-2-thiophen-2-ylmethyl-1H-benzoimidazole-5-carboxylic acid [(S)-1-(2-dimethylamino-ethylcarbamoyl)-3-methyl-butyl]-amide] gave an EC50 of 0.383 µM.
For `CCC(CC)n1c(Cc2cccs2)nc2cc(C(=O)N[C@@H](CC(C)C)C(=O)NCCOC)ccc21` [Example 268, 1-(1-Ethyl-propyl)-2-thiophen-2-ylmethyl-1H-benzoimidazole-5-carboxylic acid [(S)-1-(2-methoxy-ethylcarbamoyl)-3-methyl-butyl]-amide], the EC50 was 0.552 µM.
`CCC(CC)n1c(Cc2cccs2)nc2cc(C(=O)N[C@@H](CC(C)C)C(=O)N3CCN(c4cccc(C(F)(F)F)c4)CC3)ccc21` [Example 269, 1-(1-Ethyl-propyl)-2-thiophen-2-ylmethyl-1H-benzoimidazole-5-carboxylic acid {(S)-3-methyl-1-[4-(3-trifluoromethyl-phenyl)-piperazine-1-carbonyl]-butyl}-amide] was tested, and the EC50 was 18.5 µM.
With `CCC(CC)n1c(Cc2cccs2)nc2cc(C(=O)N[C@@H](CC(C)C)C(=O)N3CCN(c4ccc(F)cc4)CC3)ccc21` [Example 270, 1-(1-Ethyl-propyl)-2-thiophen-2-ylmethyl-1H-benzoimidazole-5-carboxylic acid {(S)-1-[4-(4-fluoro-phenyl)-piperazine-1-carbonyl]-3-methyl-butyl}-amide] the EC50 was 10.8 µM.
With `CCC(CC)n1c(Cc2cccs2)nc2cc(C(=O)N[C@@H](CC(C)C)C(=O)N3CCN(Cc4ccccc4)CC3)ccc21` [Example 271, 1-(1-Ethyl-propyl)-2-thiophen-2-ylmethyl-1H-benzoimidazole-5-carboxylic acid [(S)-1-(4-benzyl-piperazine-1-carbonyl)-3-methyl-butyl]-amide] the EC50 was 3.26 µM.
